From patent US20250382272A1, “CRYSTALLINE FORM OF INDAZIFLAM, METHODS FOR ITS PREPARATION AND USE THEREOF” (ADAMA AGAN LTD., priority 2022, published 2025)

Experiment: Bulk and tapped density, compressibility index (USP <1174> Powder Flow) of indaziflam crystal samples
Format: physicochemical
Conditions: for Tap density: cylinder manually tapped (dropped) 50 times, ~1 second between taps; for flowability: judged from compressibility index as explained in US Pharmacopoeia method <1174> Powder Flow; for Bulk Density: sample poured into tared cylinder to 250 ml mark and weighed
Method: For purposes of sufficiency of disclosure, the “compressibility index” means in the present invention the compressibility index measured according to US Pharmacopoeia method <1174> Powder Flow, revision from 20 Jan. 2023.
Bulk and tapped density measurements are obtained by placing a sample onto a glazed paper. Then, the sample is poured into the tared cylinder until 250 ml mark is reached. The amount of sample is weighed. Rubber bung is fitted into the cylinder. Cylinder is placed in the dropping box and manually tapped (dropped) 50 times with ˜1 second time difference between taps. Compressibility index is calculated from the bulk density and the tapped density as explained in US Pharmacopoeia method <1174> Powder Flow, revision from 20 Jan. 2023.

SMILES | Tap density | flowability | Bulk Density
Cc1ccc2c(c1)[C@H](Nc1nc(N)nc([C@@H](C)F)n1)[C@@H](C)C2 [Example 2, N-[(1R,2S)-2,6-dimethyl-2,3-dihydro-1H-inden-yl]-6-[(1R)-1-fluoroethyl]-1,3-5-triazine-2,4-diamine] | 0.52 gr/ml | good flowability | 0.47 gr/ml
Cc1ccc2c(c1)[C@H](Nc1nc(N)nc([C@@H](C)F)n1)[C@@H](C)C2 [Comparative Example 3, N-[(1R,2S)-2,6-dimethyl-2,3-dihydro-1H-inden-yl]-6-[(1R)-1-fluoroethyl]-1,3-5-triazine-2,4-diamine, reference compound] | 0.59 gr/ml | not good | 0.48 gr/ml
Cc1ccc2c(c1)[C@H](Nc1nc(N)nc([C@@H](C)F)n1)[C@@H](C)C2 [Example 1, N-[(1R,2S)-2,6-dimethyl-2,3-dihydro-1H-inden-yl]-6-[(1R)-1-fluoroethyl]-1,3-5-triazine-2,4-diamine] | 0.65 gr/ml |  | 0.56 gr/ml
